Test results as given in patent publication US20030153056A1, “Glycosyltransferase proteins” (priority 2000, published 2003).

Target: T1, Brainiac β1-3-N-acetylglucosaminyltransferase (Drosophila melanogaster, UniProt Q24157)
T1 construct: The full coding region of Brainiac was prepared by PCR using genomic DNA; made in house; host or cells: High Five insect cells (baculovirus vector pVL1393); microsomal fractions
T1 sequence (Q24157 1-325): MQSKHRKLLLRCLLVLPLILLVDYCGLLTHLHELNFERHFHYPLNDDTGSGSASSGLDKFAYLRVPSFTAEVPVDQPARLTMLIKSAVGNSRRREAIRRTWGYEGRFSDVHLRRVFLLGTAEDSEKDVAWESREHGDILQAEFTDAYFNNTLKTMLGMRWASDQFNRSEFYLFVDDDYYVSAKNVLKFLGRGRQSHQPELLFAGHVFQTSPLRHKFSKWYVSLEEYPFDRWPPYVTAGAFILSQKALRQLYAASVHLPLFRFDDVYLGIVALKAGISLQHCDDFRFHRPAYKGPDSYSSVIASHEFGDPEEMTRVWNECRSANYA
Test: Substrate specificities of Brainiac β1-3-N-acetylglucosaminyltransferase (acceptor panel, microsomal preparations)
Assay type: biochemical
Conditions: microsomes of pVL-Brainiac infected High Five cells, background of irrelevant construct subtracted, donor UDP-GlcNAc

SMILES | Brainiac activity with substrate (substrate 2 mM) [nmol/h/mg] | Brainiac activity with substrate (substrate 20 mM) [nmol/h/mg]
COC1OC(CO)C(O)C(O)C1O (stereo not drawn) [Manα1 -Me] | 0.36 | 0.61
OC[C@H]1O[C@H](OC[C@H]2O[C@H](OCc3ccccc3)[C@@H](O)[C@@H](O[C@H]3O[C@H](CO)[C@@H](O)[C@H](O)[C@@H]3O)[C@@H]2O)[C@@H](O)[C@@H](O)[C@@H]1O [Manα1-6(Manα1-3)Manα1-Bzl] | 0.01 | 0.08
Cc1cc(=O)oc2cc(O[C@H]3O[C@H](C)[C@H](O)[C@H](O)[C@H]3O)ccc12 [D-Fucα1-MeUmb] | 0.00 | 0.00
Cc1cc(=O)oc2cc(O[C@H]3O[C@H](CO)[C@@H](O)[C@H](O)[C@@H]3O)ccc12 [Manα1-MeUmb] | 0.11 | 0.17
CO[C@@H]1O[C@H](CO)[C@@H](O)[C@H](O)[C@@H]1O [Manβ1-Me] | 1.46 | 2.74
CC(=O)N[C@H]1[C@H](O[C@H]2[C@@H](O)[C@@H](CO)O[C@@H](O[C@H]3[C@H](O)[C@@H](O)C(O)O[C@@H]3CO)[C@@H]2O)O[C@H](CO)[C@@H](O)[C@@H]1O[C@@H]1O[C@H](CO)[C@H](O)[C@H](O)[C@H]1O (stereo partly drawn) [lacto-N-tetraose] | 0.00 | 0.00
C[C@H]1OC(O)[C@H](O)[C@@H](O)[C@H]1O (stereo partly drawn) [D-Fuc] | 0.01 | 0.01
C[C@@H]1O[C@H](Oc2ccc([N+](=O)[O-])cc2)[C@@H](O)[C@H](O)[C@@H]1O [L-Fucβ1-pNph] | 0.01 | 0.02
CO[C@H]1O[C@H](CO)[C@@H](O[C@H]2O[C@H](CO)[C@@H](O)[C@H](O)[C@@H]2O)[C@H](O)[C@@H]1O [Manα1-4Manα1-Me] | 0.00 | 0.00
Cc1cc(=O)oc2cc(O[C@@H]3O[C@H](CO)[C@@H](O)[C@H](O)[C@@H]3O)ccc12 [Manβ1-MeUmb] | 5.25 | 6.18
CO[C@H]1O[C@H](CO)[C@@H](O)[C@H](O)[C@@H]1O[C@@H]1O[C@H](CO)[C@@H](O)[C@H](O)[C@@H]1O [Manβ1-2Manα1-Me] | 0.15 | 0.16
CO[C@H]1O[C@H](CO)[C@@H](O)[C@H](O[C@H]2O[C@H](CO)[C@@H](O)[C@H](O)[C@@H]2O)[C@@H]1O [Manα1-3Manα1-Me] | 0.00 | 0.00
O=[N+]([O-])c1ccccc1O[C@@H]1O[C@H](CO)[C@H](O)[C@H](O)[C@H]1O [Galβ1-oNph] | 0.21 | 0.02
CC(=O)N[C@H]1[C@H](OCc2ccccc2)O[C@H](CO)[C@@H](O[C@@H]2O[C@H](CO)[C@H](O)[C@H](O)[C@H]2O)[C@@H]1O [Galβ1-4GlcNAcβ1-Bzl] | 0.04 | 0.02
OC[C@H]1O[C@@H](O[C@@H]2[C@H](O)[C@@H](O)C(O)O[C@@H]2CO)[C@H](O)[C@@H](O)[C@H]1O (stereo partly drawn) [Galβ1-4Gal] | 0.00 | 0.00
